Results: PubChem BioAssay (NCI)
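Protocol summary: plate cells (96-well), add compound at 5 concentrations, incubate 48 h, interpolate endpoints linearly. The concentration for full growth arrest is given as TGI.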

How the values were obtained:
Assay in all cases: NCI anticancer screen, dose series, 48 h
TK-10 renal = system: TK-10 renal
RXF 393 renal = system: RXF 393 renal
HCT-116 colon = system: HCT-116 colon
U251 CNS = system: U251 CNS
SNB-75 CNS = system: SNB-75 CNS
BT-549 breast = system: BT-549 breast
SF-295 CNS = system: SF-295 CNS

Measured: TGI

COc1cccc(N2C(=O)CSC2c2c[nH]c3ccccc23)c1 (configuration not stated)
> 100 µM: all assays above
